{"source": "patent US20160263130A1", "about": "“PHARMACEUTICAL COMPOSITION FOR PREVENTING OR TREATING LIVER DISEASES, CONTAINING PLASMALOGEN PRECURSOR, PLASMALOGEN OR PLASMALOGEN ANALOG AS EFFECTIVE COMPONENT” (UNIVERSITY OF ULSAN FOUNDATION FOR INDUSTRY COOPERATION, priority 2013, published 2016)", "type_in_all_cases": "in vivo, C57/BL6 male mice", "key": {"[1]": {"tested_on": "mice treated with methionine-choline deficient diet (MCDD)", "assay": "Plasma ALT measurement in MCD diet steatohepatitis mice", "settings": "MCD diet together with 100 mg/kg/day, 6 weeks, vs MCDD group, FIG. 1", "experimental": "(§1) A methionine-choline deficient (MCD) feed to induce steatohepatitis was purchased from Dyets (Bethlehem, Pa., USA). Alkoxy glycerol (batyl alcohol), as a plasmalogen precursor, was purchased from Sigma (St Louis, Mo., USA).\n(§2) 2% BSA was prepared in a DMEM:F12 medium, and plasmalogen precursor alkoxy glycerol dissolved in ethanol was added thereto After incubation at 70° C. for 20 minutes, the mixture was inoculated in a manner of observing crystal disappearance. 7-week-old C57/BL6 male mice were brought in to an experimental animal room, stabilized for 7 days, and then separated into a general feed group, as a control group, an MCD diet group (an MCDD group), and a group taken a mixture of MCD diet and 100 mg/kg/day of plasmalogen precursor alkoxy glycerol (an AG group), where each of the groups had six mice. The test feeds were taken for the total of 6 weeks, and the mice were allowed to only take water for the following 12 hours. Then, blood samples were obtained from the mice, and liver tissues were harvested from each of the mice. […]\nBlood samples were obtained from venae cavae of the experimental animals, the plasma was separated from the blood samples by using a centrifuge (at 300 rpm for 15 minutes), and alanine aminotransferase (ALT) of the plasma was measured by using a kit of Labs Biotechnology (London, Canada). […]"}, "[2]": {"tested_on": "mice that were allowed to take high fat diet (HFD)", "assay": "High fat diet (HFD) hepatic steatosis animal model", "settings": "HFD mixed with 200 mg/kg/day (AG-200), 12 weeks, FIG. 6", "excerpt": "Although a MCDD animal model is a model that represents nonalcoholic steatohepatitis occurrence, the MCDD animal model cannot represent a risk factor that accompanies metabolic syndrome. In order to overcome such limitation, liver tissues of mice that were allowed to take high fat diet (HFD) as a general animal model with respect to hepatic steatosis were used for the comparison.\nThe animal model only had simple hepatic steatosis without inflammation unlike the MCDD group.\nAlkoxy glycerol, as a plasmalogen precursor, was added to the HFD feed that induces obesity and non-alcoholic hepatic steatosis, and the feed was administrated to the animal model, and the change was confirmed.\nFirst, the control group (CON) was prepared by allowing 7-week-old C57/BL6 male mice to take a general feed including 7% of fat, 18% of protein, and 75% of carbohydrate, and the HFD group was prepared by allowing 7-week-old C57/BL6 male mice to freely take a HFD feed including 60% of fat, 18% of protein, and 22% of carbohydrate.\nAlso, the AG group (AG-200) was allowed to take the HFD mixed with 200 mg/kg/day of alkoxy glycerol. The experimental groups were allowed to take the corresponding feeds for the total of 12 weeks, and liver histological changes in the livers were confirmed in the same manner in Example 4, and the plasma ALT levels were confirmed in the same manner as in Example 1."}, "[3]": {"tested_on": "mice treated with methionine-choline deficient diet (MCDD)", "assay": "Liver histological observation (H&E, trichrome C), MCD diet mice", "settings": "FIG. 4", "experimental": "as §1\n2% BSA was prepared in a DMEM:F12 medium, and plasmalogen precursor alkoxy glycerol dissolved in ethanol was added thereto After incubation at 70° C. for 20 minutes, the mixture was inoculated in a manner of observing crystal disappearance. 7-week-old C57/BL6 male mice were brought in to an experimental animal room, stabilized for 7 days, and then separated into a general feed group, as a control group, an MCD diet group (an MCDD group), and a group taken a mixture of MCD diet and 100 mg/kg/day of plasmalogen precursor alkoxy glycerol (an AG group), where each of the groups had six mice. The test feeds were taken for the total of 6 weeks, and the mice were allowed to only take water for the following 12 hours. Then, blood samples were obtained from the mice, and liver tissues were harvested from each of the mice. The harvested liver tissues were instantly rapid-frozen in dry ice and stored with plasma in a freezer at −70° C. […]\nThe segment was died with hematoxylin-eosin (H&E) and trichrome C, and examined and analyzed by using an optical microscope."}, "[4]": {"tested_on": "mice treated with methionine-choline deficient diet (MCDD)", "assay": "Neutral fats (triglyceride) in liver tissue of MCD diet mice", "settings": "MCD diet together with 100 mg/kg/day, 6 weeks, FIG. 2", "experimental": "as §1, §2\nNeutral fats in the liver tissue was measured by using a triglyceride (GPO-Trinder) kit purchased from Sigma. […] Then, a triglyceride reagent A was added thereto, allowed to react at room temperature for 5 minutes, and the measurement was performed by using an Emax precision micro plate reader (Molecular Devices, Sunnyvale, Calif.) at 540 nm."}, "[5]": {"tested_on": "tumor necrosis factor (TNF-α) and monocyte chemotactic protein-1 (MCP-1) gene expression", "assay": "Inflammatory cytokine gene expression in liver tissue by real-time PCR, MCD diet mice", "settings": "MCD diet with 100 mg/kg/day, 6 weeks, FIG. 3", "experimental": "as §1\n2% BSA was prepared in a DMEM:F12 medium, and plasmalogen precursor alkoxy glycerol dissolved in ethanol was added thereto After incubation at 70° C. for 20 minutes, the mixture was inoculated in a manner of observing crystal disappearance. 7-week-old C57/BL6 male mice were brought in to an experimental animal room, stabilized for 7 days, and then separated into a general feed group, as a control group, an MCD diet group (an MCDD group), and a group taken a mixture of MCD diet and 100 mg/kg/day of plasmalogen precursor alkoxy glycerol (an AG group), where each of the groups had six mice. The test feeds were taken for the total of 6 weeks, and the mice were allowed to only take water for the following 12 hours. Then, blood samples were obtained from the mice, and liver tissues were harvested from each of the mice. The harvested liver tissues were instantly rapid-frozen in dry ice and stored with plasma in a freezer at −70° C.\nIn order to confirm change in an inflammation degree of liver tissues, gene expression of a tumor necrosis factor (TNF-α) and monocyte chemotactic protein-1 (MCP-1), which are typical inflammatory cytokines, were confirmed by real-time PCR."}}, "data": [{"smiles": "CCCCCCCCCCCCCCCCCCOCC(O)CO", "note": "(centres unmarked) [alkoxy glycerol, batyl alcohol]", "values": [{"measurement": "change in plasma ALT", "setting": "[1]", "result": "significantly improvement"}, {"measurement": "hepatic steatosis occurrence (liver histology)", "setting": "[2]", "result": "significant improvement"}, {"measurement": "lipid content in the liver tissues", "setting": "[2]", "result": "significant improvement"}, {"measurement": "plasma ALT level", "setting": "[2]", "result": "remarkable reduction"}, {"measurement": "steatohepatitis, H&E and trichrome C histology", "setting": "[3]; MCD diet with 100 mg/kg/day, 6 weeks", "result": "relieved to the similar level with that of the control group"}, {"measurement": "liver fibrosis", "setting": "[3]; MCDD together with alkoxy glycerol", "result": "significant improvement"}, {"measurement": "change in amount of neutral fats of liver tissues", "setting": "[4]", "result": "significantly improvement"}, {"measurement": "expression of inflammatory cytokine genes (TNF-α, MCP-1) in liver tissue", "setting": "[5]", "result": "suppressed expression of inflammatory cytokine genes"}]}]}
